According to ChEMBL document CHEMBL4043065, “Simplifying nature: Towards the design of broad spectrum kinetoplastid inhibitors, inspired by acetogenins” (Bioorg Med Chem, 2017):

Legend:
Trypanosoma brucei [1] = assay: Trypanocidal activity against Trypanosoma brucei 427 blood stream forms after 64 hrs by Alamar blue assay; type: functional; conditions: Trypanosoma brucei, 427, 64 h
HeLa [2] = assay: Cytotoxicity against human HeLa cells after 64 hrs by Alamar blue assay; type: cell-based
Trypanosoma cruzi = assay: Trypanocidal activity against Trypanosoma cruzi strain CL Brener epimastogoes after 64 hrs by Alamar blue assay; type: functional
Leishmania major = assay: Antileishmanial activity against Leishmania major MHOM/IL/80/Friedlin promastigotes after 72 hrs by Alamar blue assay; type: functional
Trypanosoma brucei [3] = assay: Trypanocidal activity against Trypanosoma brucei 427 procyclic forms after 64 hrs by Alamar blue assay; type: functional; conditions: Trypanosoma brucei, 427, 64 h
Vero = assay: Cytotoxicity against African green monkey Vero cells after 72 hrs by Alamar blue assay; type: cell-based; conditions: Chlorocebus sabaeus
HeLa [4] = assay: Cytotoxicity against human HeLa cells; type: cell-based
Trypanosoma brucei [5] = assay: Trypanocidal activity against Trypanosoma brucei blood stream forms; type: functional

| SMILES | EC50 (Trypanosoma brucei [1]) [µM] | EC50 (HeLa [2]) [µM] | EC50 (Trypanosoma cruzi) [µM] | EC50 (Leishmania major) [µM] | EC50 (Trypanosoma brucei [3]) [µM] | EC50 (Vero) [µM] | EC50 (HeLa [4]) [µM] | EC50 (Trypanosoma brucei [5]) [µM] |
| --- | --- | --- | --- | --- | --- | --- | --- | --- |
| Cn1cccc1C(=O)NCCCCCCOCCCC[C@H]1CCC[C@@H](Cn2cc([C@@H]3CCC[C@H](CCCCOCc4ccccc4)O3)nn2)O1 | 4.6 | 177 | > 500 | 16.3 | 5 | – | – | – |
| COCCCCCCNC(=O)c1ccco1 | 113 | > 500 | > 500 | > 500 | 124 | – | – | – |
| O=C(NCCCCCCOCCCC[C@H]1CCC[C@@H](Cn2cc([C@@H]3CCC[C@H](CCCCOCc4ccccc4)O3)nn2)O1)c1cocn1 | 8.4 | 21.9 | 18.3 | 21.6 | 9.9 | 26.6 | – | – |
| OCCCCCCOCCCC[C@H]1CCC[C@@H](Cn2cc([C@@H]3CCC[C@H](CCCCOCc4ccccc4)O3)nn2)O1 | 3.5 | 21.6 | 27.3 | 12.4 | 3.8 | – | – | – |
| C[C@H]1C=C(CCCCCCCCCC[C@H]2CCC[C@@H](c3cn(C[C@@H]4CCC[C@H](CCCCOCc5ccccc5)O4)nn3)O2)C(=O)O1 | – | – | – | – | – | – | 2.1 | 5.2 |
| CCCCCC[C@H]1CCC[C@@H](Cn2cc([C@@H]3CCC[C@H](CCCCO)O3)nn2)O1 | – | – | – | – | – | – | 7 | 1.8 |
| O=C(NCCCCCCOCCCC[C@H]1CCC[C@@H](Cn2cc([C@@H]3CCC[C@H](CCCCOCc4ccccc4)O3)nn2)O1)c1ccsc1 | 5.8 | > 500 | > 500 | 15.2 | 5 | > 500 | – | – |
| Cc1cc(C(=O)NCCCCCCOCCCC[C@H]2CCC[C@@H](Cn3cc([C@@H]4CCC[C@H](CCCCOCc5ccccc5)O4)nn3)O2)oc1C | 4.6 | > 100 | 135 | 72.3 | 3.9 | – | – | – |
| O=C(NCCCCCCOCCCC[C@H]1CCC[C@@H](Cn2cc([C@@H]3CCC[C@H](CCCCOCc4ccccc4)O3)nn2)O1)c1cccs1 | 5.1 | > 500 | > 500 | > 500 | 4.8 | – | – | – |
| NCCCCCCOCCCC[C@H]1CCC[C@@H](Cn2cc([C@@H]3CCC[C@H](CCCCOCc4ccccc4)O3)nn2)O1 | 5.8 | 8.1 | 16.7 | 19.2 | 9.1 | – | – | – |
| Cn1nccc1C(=O)NCCCCCCOCCCC[C@H]1CCC[C@@H](Cn2cc([C@@H]3CCC[C@H](CCCCOCc4ccccc4)O3)nn2)O1 | 6.1 | > 100 | 81.8 | 28.7 | 5.5 | – | – | – |
| COCCCCCCNC(=O)c1ccnn1C | 107 | > 250 | > 500 | > 500 | 47.4 | – | – | – |
| CCCCCC[C@H]1CCC[C@@H](Cn2cc([C@@H]3CCC[C@H](CCCCCCCCCCC4=C[C@H](C)OC4=O)O3)nn2)O1 | – | – | – | – | – | – | > 1000 | > 500 |
| c1ccc(COCCCCCCOCCCC[C@H]2CCC[C@@H](Cn3cc([C@@H]4CCC[C@H](CCCCOCc5ccccc5)O4)nn3)O2)cc1 | 4.3 | > 20 | > 500 | 411 | 29 | – | – | – |
| Cc1ccoc1C(=O)NCCCCCCOCCCC[C@H]1CCC[C@@H](Cn2cc([C@@H]3CCC[C@H](CCCCOCc4ccccc4)O3)nn2)O1 | 4.7 | 112 | > 500 | 67.8 | 2.5 | – | – | – |
| COCCCCCCNC(=O)c1ccc([N+](=O)[O-])o1 | 0.73 | 4.1 | 8 | 21 | 0.37 | 15.8 | – | – |
| O=C(NCCCCCCOCCCC[C@H]1CCC[C@@H](Cn2cc([C@@H]3CCC[C@H](CCCCOCc4ccccc4)O3)nn2)O1)c1ccc[nH]1 | 5 | > 100 | > 500 | > 500 | 4.6 | – | – | – |
| O=C(NCCCCCCOCCCC[C@H]1CCC[C@@H](Cn2cc([C@@H]3CCC[C@H](CCCCOCc4ccccc4)O3)nn2)O1)c1ccc(Cl)o1 | 4.5 | > 500 | > 500 | > 500 | 3.8 | – | – | – |
| O=C(NCCCCCCOCCCC[C@H]1CCC[C@@H](Cn2cc([C@@H]3CCC[C@H](CCCCOCc4ccccc4)O3)nn2)O1)c1cscn1 | 5.7 | > 100 | 12.6 | 21.8 | 5.8 | – | – | – |
| O=C(NCCCCCCOCCCC[C@H]1CCC[C@@H](Cn2cc([C@@H]3CCC[C@H](CCCCOCc4ccccc4)O3)nn2)O1)c1ccccc1 | 4.4 | > 250 | > 500 | > 500 | 4.3 | – | – | – |
| O=C(NCCCCCCOCCCC[C@H]1CCC[C@@H](Cn2cc([C@@H]3CCC[C@H](CCCCOCc4ccccc4)O3)nn2)O1)c1ccoc1 | 3.9 | > 500 | > 500 | 15.2 | 5.4 | > 500 | – | – |
| O=C(NCCCCCCOCCCC[C@H]1CCC[C@@H](Cn2cc([C@@H]3CCC[C@H](CCCCOCc4ccccc4)O3)nn2)O1)c1ccco1 | 3.8 | > 500 | 8 | 7.8 | 5 | > 500 | – | – |
| OCCCCCCOCCCC[C@H]1CCC[C@@H](Cn2cc([C@@H]3CCC[C@H](CCCCO)O3)nn2)O1 | 37.7 | 6.5 to 69.3 | 230 | 123 | 56.3 | – | – | – |
| Cc1nc(C(=O)NCCCCCCOCCCC[C@H]2CCC[C@@H](Cn3cc([C@@H]4CCC[C@H](CCCCOCc5ccccc5)O4)nn3)O2)co1 | 8 | 19.9 | 12.1 | 21.5 | 7.1 | 13.6 | – | – |
| O=C(NCCCCCCOCCCC[C@H]1CCC[C@@H](Cn2cc([C@@H]3CCC[C@H](CCCCOCc4ccccc4)O3)nn2)O1)c1ccc([N+](=O)[O-])o1 | 0.037 | 0.38 | 3.1 | 11.2 | 0.1 | 4.5 | – | – |
| Cc1ccc(C(=O)NCCCCCCOCCCC[C@H]2CCC[C@@H](Cn3cc([C@@H]4CCC[C@H](CCCCOCc5ccccc5)O4)nn3)O2)o1 | 4.7 to 4.9 | 42.7 | 187 | 16.1 | 3.1 | – | – | – |
